# According to paper PMC4890880 (ACS infectious diseases, 2016):
# Where two headings read alike, the source gives them in different places.
# How the values were obtained:
# [1] = system: HepG2-A16-CD81EGFP cells; test: cells; details: Homo sapiens, HepG2, read-out: % inhibition
# [2] = system: Plasmodium berghei (Pb-Luc) exoerythrocytic-stage parasites; test: microbe, parasite or virus in culture
# [3] = system: HepG2-A16-CD81EGFP cells; details: human, 50 uM
# [4] = read-out: Inhibition% @ 50 uM rep1
# [5] = read-out: Inhibition% @ 50 uM rep2
Structure (SMILES),inhibition at 50 µM [1],"inhibition at 50 µM [2, 4]","inhibition at 50 µM [2, 5]",HepG2 Tox% @ 50 uM rep1 [3],HepG2 Tox% @ 50 uM rep2 [3]
COc1ccc(OC)c(C2C3=C(CC(C)(C)CC3=O)N(c3ccc(Cl)c(Cl)c3)C3=C2C(=O)CC(C)(C)C3)c1 [MMV007208],-4.26%,-11%,-11%,,
COc1nc(Nc2ccc(C(C)C)cc2)nc(OC)n1 [MMV007808],,101%,96%,94%,95%
COc1ccc2nc(C)cc(Nc3cccc(O)c3)c2c1 [MMV008212],,99%,102%,99%,
O=C(CCc1ccccc1)c1ccccc1OCC(O)CN1CCCCC1 (stereo not shown) [MMV009015],,99%,100%,97%,
O=C1c2ccc3c4c(ccc(c24)C(=O)N1CCCCO)C(=O)N(CCCCO)C3=O [MMV009085],,103%,104%,102%,
Oc1ccc2ccccc2c1CNc1nc2ccccc2[nH]1 [MMV011832],,99%,101%,100%,
COc1ccc(C(=O)Nc2ccc3nc(N4CCCCC4)cc(C)c3c2)cc1OC [MMV019758],,104%,104%,101%,101%
CCn1c(CN2CCN(Cc3ccccc3)CC2)nc2cc(NC(=O)c3cccs3)ccc21 [MMV020439],,99%,102%,98%,99%
CN(C)CCCNCc1ccc(-c2ccc(F)c(Cl)c2)o1 [MMV020505],,98%,98%,96%,
CCC(O)c1ccc(Br)cc1NC(=O)c1cccc(Cl)c1 (stereo not shown) [MMV020654],,104%,106%,101%,101%
COc1cc(-c2nc(-c3ccccc3)c(-c3ccccc3)[nH]2)cc(OC)c1O [MMV020750],,103%,104%,102%,
COc1ccc(C=C2SC(Nc3ccc(F)cc3)=NC2=O)c(OC)c1 [MMV084434],,103%,104%,100%,
OC(CNCC1CCCO1)Cn1c2ccc(Cl)cc2c2cc(Cl)ccc21 (stereo not shown) [MMV396736],,101%,101%,98%,99%
CC(C)CNC(=O)c1c(N)n(CCc2ccccc2F)c2nc3ccccc3nc12 [MMV396744],,101%,103%,99%,99%
CCOC(=O)c1cnc2ccc(OC)cc2c1NCc1ccccc1 [MMV665813],,103%,104%,102%,
OC(CNC1CCCCC1)Cn1c2ccc(I)cc2c2cc(I)ccc21 (stereo not shown) [MMV665882],,103%,104%,100%,
COc1ccc2nc(N)nc(C)c2c1 [MMV665897],,100%,101%,97%,
N=c1n(CCN2CCCCC2)c2ccccc2n1CC(O)c1cccc(Br)c1 (stereo not shown) [MMV665902],,104%,105%,101%,102%
FC(F)(F)c1cccc(CNC2CCN(CCc3ccccc3)CC2)c1 [MMV665979],,101%,99%,99%,99%
COc1ccc(CNC2CCN(c3ccc(NC(=O)c4cccc(Cl)c4)cc3)CC2)cc1OC [MMV666067],,102%,99%,98%,99%
COc1ccc(CCN2CCC(CN(C)Cc3cnn(-c4ccccc4)c3)CC2)cc1 [MMV666069],,101%,103%,99%,100%
COc1ccccc1C(=O)ON=C(N)Cc1cccc2ccccc12 [MMV666686],,104%,104%,101%,
